Measured values reported in PubChem BioAssay AID2060891 (Molecular Pharmacology Branch, DTP, NCI, 2025).

Test system: K98450-129-R-PDC complex spheroid growth, percent test/control
Test: Anticancer human tumor K98450-129-R-PDC patient-derived colon adenocarcinoma cell line growth inhibition [RAS]
Details: for IC50: curve of first compound; for viability, T/C: stronger effect = lower value
How it was run: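 Agents were tested in combination matrices in half-log decrements from a top concentration at or near clinical Cmax (10 microM if undetermined). Targets were multi-cell spheroids of tumour lines plus HUVEC and MSC stromal cells.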

[1] = second compound 0.000949 µM, first compound 0.0316 µM
[2] = second compound 0.000949 µM, first compound 0.1 µM
[3] = second compound 0.000949 µM, first compound 0.316 µM
[4] = second compound 0.000949 µM, first compound 1 µM
[5] = second compound 0.000949 µM, first compound 3.16 µM
[6] = second compound 0.000949 µM, first compound 10 µM
[7] = second compound 0.003 µM, first compound 0.0316 µM
[8] = second compound 0.003 µM, first compound 0.1 µM
[9] = second compound 0.003 µM, first compound 0.316 µM
[10] = second compound 0.003 µM, first compound 1 µM
[11] = second compound 0.003 µM, first compound 3.16 µM
[12] = second compound 0.003 µM, first compound 10 µM
[13] = second compound 0.00949 µM, first compound 0.0316 µM
[14] = second compound 0.00949 µM, first compound 0.1 µM
[15] = second compound 0.00949 µM, first compound 0.316 µM
[16] = second compound 0.00949 µM, first compound 1 µM
[17] = second compound 0.00949 µM, first compound 3.16 µM
[18] = second compound 0.00949 µM, first compound 10 µM
[19] = second compound 0.03 µM, first compound 0.0316 µM
[20] = second compound 0.03 µM, first compound 0.1 µM
[21] = second compound 0.03 µM, first compound 0.316 µM
[22] = second compound 0.03 µM, first compound 1 µM
[23] = second compound 0.03 µM, first compound 3.16 µM
[24] = second compound 0.03 µM, first compound 10 µM
[25] = second compound 0.0949 µM, first compound 0.0316 µM
[26] = second compound 0.0949 µM, first compound 0.1 µM
[27] = second compound 0.0949 µM, first compound 0.316 µM
[28] = second compound 0.0949 µM, first compound 1 µM
[29] = second compound 0.0949 µM, first compound 3.16 µM
[30] = second compound 0.0949 µM, first compound 10 µM
[31] = second compound 0.3 µM, first compound 0.0316 µM
[32] = second compound 0.3 µM, first compound 0.1 µM
[33] = second compound 0.3 µM, first compound 0.316 µM
[34] = second compound 0.3 µM, first compound 1 µM
[35] = second compound 0.3 µM, first compound 3.16 µM
[36] = second compound 0.3 µM, first compound 10 µM
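Also: spheroids exposed to agents for seven days before the viability readout.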
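For viability, T/C in this document: luminescence used as a proxy for viable cell amount.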

Compound: Cc1nc(N2CCC3(CC2)COC(C)C3N)c(CO)nc1Sc1ccnc(N)c1Cl (stereo unspecified) + CCn1c(-c2cccnc2C(C)OC)c2c3cc(ccc31)N1CCOC(CC(NC(=O)C(C(C)C)N(C)C(=O)C3(F)CCN(C(=O)C#CC(C)(C)N(C)C)CC3)C(=O)N3CCCC(N3)C(=O)OCC(C)(C)C2)C1
- IC50 (second compound 0.000949 µM): 365 nM
- IC50 (second compound 0.003 µM): 41.5 nM
- IC50 (second compound 0.00949 µM): < 31.6 nM
- IC50 (second compound 0.03 µM): < 31.6 nM
- IC50 (second compound 0.0949 µM): < 31.6 nM
- IC50 (second compound 0.3 µM): < 31.6 nM
- viability, T/C [1]: 71.8%
- viability, T/C [2]: 64.7%
- viability, T/C [3]: 54.1%
- viability, T/C [4]: 27.5%
- viability, T/C [5]: 12.1%
- viability, T/C [6]: 9.55%
- viability, T/C [7]: 53.4%
- viability, T/C [8]: 39%
- viability, T/C [9]: 16.9%
- viability, T/C [10]: 10.4%
- viability, T/C [11]: 8.15%
- viability, T/C [12]: 7.47%
- viability, T/C [13]: 32.7%
- viability, T/C [14]: 21.6%
- viability, T/C [15]: 12.3%
- viability, T/C [16]: 8.57%
- viability, T/C [17]: 8.2%
- viability, T/C [18]: 6.2%
- viability, T/C [19]: 26.1%
- viability, T/C [20]: 14.9%
- viability, T/C [21]: 10.7%
- viability, T/C [22]: 10.1%
- viability, T/C [23]: 6.29%
- viability, T/C [24]: 6.11%
- viability, T/C [25]: 20.9%
- viability, T/C [26]: 16%
- viability, T/C [27]: 8.78%
- viability, T/C [28]: 8.48%
- viability, T/C [29]: 8.98%
- viability, T/C [30]: 6.05%
- viability, T/C [31]: 21.7%
- viability, T/C [32]: 14.2%
- viability, T/C [33]: 10.3%
- viability, T/C [34]: 8.27%
- viability, T/C [35]: 8.02%
- viability, T/C [36]: 6.57%

Compound: NC1c2ccccc2OC12CCN(c1cnc3c(N4CCCc5ncccc54)n[nH]c3n1)CC2 (stereo unspecified) + CCn1c(-c2cccnc2C(C)OC)c2c3cc(ccc31)N1CCOC(CC(NC(=O)C(C(C)C)N(C)C(=O)C3(F)CCN(C(=O)C#CC(C)(C)N(C)C)CC3)C(=O)N3CCCC(N3)C(=O)OCC(C)(C)C2)C1
- IC50 (second compound 0.000949 µM): < 31.6 nM
- IC50 (second compound 0.003 µM): < 31.6 nM
- IC50 (second compound 0.00949 µM): < 31.6 nM
- IC50 (second compound 0.03 µM): < 31.6 nM
- IC50 (second compound 0.0949 µM): < 31.6 nM
- IC50 (second compound 0.3 µM): < 31.6 nM
- viability, T/C [1]: 44.8%
- viability, T/C [2]: 23.5%
- viability, T/C [3]: 11%
- viability, T/C [4]: 7.16%
- viability, T/C [5]: 6.94%
- viability, T/C [6]: 8.73%
- viability, T/C [7]: 21.5%
- viability, T/C [8]: 12.4%
- viability, T/C [9]: 7.71%
- viability, T/C [10]: 6.76%
- viability, T/C [11]: 6.52%
- viability, T/C [12]: 7.13%
- viability, T/C [13]: 15.6%
- viability, T/C [14]: 9.32%
- viability, T/C [15]: 7.2%
- viability, T/C [16]: 6.45%
- viability, T/C [17]: 6.54%
- viability, T/C [18]: 7.85%
- viability, T/C [19]: 12.8%
- viability, T/C [20]: 9.35%
- viability, T/C [21]: 7.81%
- viability, T/C [22]: 6.41%
- viability, T/C [23]: 6.04%
- viability, T/C [24]: 6.71%
- viability, T/C [25]: 11%
- viability, T/C [26]: 8.32%
- viability, T/C [27]: 6.62%
- viability, T/C [28]: 6.26%
- viability, T/C [29]: 5.17%
- viability, T/C [30]: 7.13%
- viability, T/C [31]: 9.99%
- viability, T/C [32]: 6.92%
- viability, T/C [33]: 6.83%
- viability, T/C [34]: 6.04%
- viability, T/C [35]: 5.35%
- viability, T/C [36]: 6.26%

Compound: Nc1ccn(C2OC(CO)C(O)C2(F)F)c(=O)n1 (stereo unspecified) + CCn1c(-c2cccnc2C(C)OC)c2c3cc(ccc31)N1CCOC(CC(NC(=O)C(C(C)C)N(C)C(=O)C3(F)CCN(C(=O)C#CC(C)(C)N(C)C)CC3)C(=O)N3CCCC(N3)C(=O)OCC(C)(C)C2)C1
- IC50 (second compound 0.000949 µM): 18.4 nM
- IC50 (second compound 0.003 µM): 9.33 nM
- IC50 (second compound 0.00949 µM): < 3.16 nM
- IC50 (second compound 0.03 µM): < 3.16 nM
- IC50 (second compound 0.0949 µM): < 3.16 nM
- IC50 (second compound 0.3 µM): < 3.16 nM
- viability, T/C (second compound 0.000949 µM, first compound 0.00316 µM): 73.8%
- viability, T/C (second compound 0.000949 µM, first compound 0.01 µM): 43%
- viability, T/C [1]: 51.7%
- viability, T/C [2]: 39.8%
- viability, T/C [3]: 32.4%
- viability, T/C [4]: 25.3%
- viability, T/C (second compound 0.003 µM, first compound 0.00316 µM): 65.6%
- viability, T/C (second compound 0.003 µM, first compound 0.01 µM): 43.6%
- viability, T/C [7]: 42.4%
- viability, T/C [8]: 26.9%
- viability, T/C [9]: 24.5%
- viability, T/C [10]: 17%
- viability, T/C (second compound 0.00949 µM, first compound 0.00316 µM): 49.1%
- viability, T/C (second compound 0.00949 µM, first compound 0.01 µM): 38.4%
- viability, T/C [13]: 29.8%
- viability, T/C [14]: 21.9%
- viability, T/C [15]: 19.9%
- viability, T/C [16]: 18.1%
- viability, T/C (second compound 0.03 µM, first compound 0.00316 µM): 39%
- viability, T/C (second compound 0.03 µM, first compound 0.01 µM): 34.8%
- viability, T/C [19]: 26.4%
- viability, T/C [20]: 20.7%
- viability, T/C [21]: 20.6%
- viability, T/C [22]: 17.3%
- viability, T/C (second compound 0.0949 µM, first compound 0.00316 µM): 32.4%
- viability, T/C (second compound 0.0949 µM, first compound 0.01 µM): 37.1%
- viability, T/C [25]: 25.7%
- viability, T/C [26]: 21.2%
- viability, T/C [27]: 20.8%
- viability, T/C [28]: 16.8%
- viability, T/C (second compound 0.3 µM, first compound 0.00316 µM): 33.5%
- viability, T/C (second compound 0.3 µM, first compound 0.01 µM): 32.1%
- viability, T/C [31]: 26.6%
- viability, T/C [32]: 19.1%
- viability, T/C [33]: 19.5%
- viability, T/C [34]: 15.6%
